Data from PubChem BioAssay AID1259407 (Chemical Carcinogenesis Research Information System (CCRIS), 2018).
The source made the active and inactive calls. No rule for the calls is given here.

Test system: CCRIS mutagenicity, Ames/micronucleus/aberration tests
Experiment: CCRIS mutagenicity studies
Settings: Method: PREINCUBATION
[1] = Test System: E. COLI, Strain/Indicator: WP2 UVRA, Metabolic Activation: NONE
[2] = Test System: AMES SALMONELLA TYPHIMURIUM, Strain/Indicator: TA98, Metabolic Activation: NONE
[3] = Test System: AMES SALMONELLA TYPHIMURIUM, Strain/Indicator: TA100, Metabolic Activation: NONE

Measured: mutagenic call

CCCCOC(C)=O
inactive: Test System: AMES SALMONELLA TYPHIMURIUM, Strain/Indicator: TA97, Metabolic Activation: HAMSTER, LIVER, S-9, AROCLOR 1254 (10 OR 30%) inactive; negative | Test System: AMES SALMONELLA TYPHIMURIUM, Strain/Indicator: TA97, Metabolic Activation: NONE inactive; negative | Test System: AMES SALMONELLA TYPHIMURIUM, Strain/Indicator: TA97, Metabolic Activation: RAT, LIVER, S-9, AROCLOR 1254 (10 OR 30%) inactive; negative | Test System: AMES SALMONELLA TYPHIMURIUM, Strain/Indicator: TA98, Metabolic Activation: HAMSTER, LIVER, S-9, AROCLOR 1254 (10 OR 30%) inactive; negative | Test System: AMES SALMONELLA TYPHIMURIUM, Strain/Indicator: TA98, Metabolic Activation: RAT, LIVER, S-9, AROCLOR 1254 (10 OR 30%) inactive; negative | Test System: AMES SALMONELLA TYPHIMURIUM, Strain/Indicator: TA98, Metabolic Activation: RAT, LIVER, S-9, KC 500 inactive; negative | Test System: AMES SALMONELLA TYPHIMURIUM, Strain/Indicator: TA98, Metabolic Activation: RAT, LIVER, S-9, PHENOBARBITAL AND BETA-NAPHTHOFLAVONE inactive; negative | Test System: AMES SALMONELLA TYPHIMURIUM, Strain/Indicator: TA100, Metabolic Activation: HAMSTER, LIVER, S-9, AROCLOR 1254 (10 OR 30%) inactive; negative | Test System: AMES SALMONELLA TYPHIMURIUM, Strain/Indicator: TA100, Metabolic Activation: RAT, LIVER, S-9, AROCLOR 1254 (10 OR 30%) inactive; negative | Test System: AMES SALMONELLA TYPHIMURIUM, Strain/Indicator: TA100, Metabolic Activation: RAT, LIVER, S-9, KC 500 inactive; negative | Test System: AMES SALMONELLA TYPHIMURIUM, Strain/Indicator: TA100, Metabolic Activation: RAT, LIVER, S-9, PHENOBARBITAL AND BETA-NAPHTHOFLAVONE inactive; negative | Test System: AMES SALMONELLA TYPHIMURIUM, Strain/Indicator: TA102, Metabolic Activation: NONE inactive; negative | Test System: AMES SALMONELLA TYPHIMURIUM, Strain/Indicator: TA102, Metabolic Activation: RAT, LIVER, S-9, PHENOBARBITAL AND BETA-NAPHTHOFLAVONE inactive; negative | Test System: AMES SALMONELLA TYPHIMURIUM, Strain/Indicator: TA104, Metabolic Activation: NONE inactive; negative | Test System: AMES SALMONELLA TYPHIMURIUM, Strain/Indicator: TA104, Metabolic Activation: RAT, LIVER, 2-9, PHENOBARBITAL AND BETA-NAPHTHOFLAVONE inactive; negative | Test System: AMES SALMONELLA TYPHIMURIUM, Strain/Indicator: TA104, Metabolic Activation: RAT, LIVER, S-9, PHENOBARBITAL AND BETA-NAPHTHOFLAVONE inactive; negative | Test System: AMES SALMONELLA TYPHIMURIUM, Strain/Indicator: TA1535, Metabolic Activation: HAMSTER, LIVER, S-9, AROCLOR 1254 (10 OR 30%) inactive; negative | Test System: AMES SALMONELLA TYPHIMURIUM, Strain/Indicator: TA1535, Metabolic Activation: RAT, LIVER, S-9, AROCLOR 1254 (10 OR 30%) inactive; negative | Test System: AMES SALMONELLA TYPHIMURIUM, Strain/Indicator: TA1535, Metabolic Activation: RAT, LIVER, S-9, KC 500 inactive; negative | Test System: AMES SALMONELLA TYPHIMURIUM, Strain/Indicator: TA1535, Metabolic Activation: RAT, LIVER, S-9, PHENOBARBITAL AND BETA-NAPHTHOFLAVONE inactive; negative | Test System: AMES SALMONELLA TYPHIMURIUM, Strain/Indicator: TA1537, Metabolic Activation: HAMSTER, LIVER, S-9, AROCLOR 1254 (30%) inactive; negative | Test System: AMES SALMONELLA TYPHIMURIUM, Strain/Indicator: TA1537, Metabolic Activation: RAT, LIVER, S-9, AROCLOR 1254 (30%) inactive; negative | Test System: AMES SALMONELLA TYPHIMURIUM, Strain/Indicator: TA1537, Metabolic Activation: RAT, LIVER, S-9, KC 500 inactive; negative | Test System: AMES SALMONELLA TYPHIMURIUM, Strain/Indicator: TA1537, Metabolic Activation: RAT, LIVER, S-9, PHENOBARBITAL AND BETA-NAPHTHOFLAVONE inactive; negative | Test System: AMES SALMONELLA TYPHIMURIUM, Strain/Indicator: TA1538, Metabolic Activation: NONE inactive; negative | Test System: AMES SALMONELLA TYPHIMURIUM, Strain/Indicator: TA1538, Metabolic Activation: RAT, LIVER, S-9, KC 500 inactive; negative | Test System: E. COLI, Strain/Indicator: WP2UVRA/PKM101, Metabolic Activation: NONE inactive; negative | Test System: E. COLI, Strain/Indicator: WP2UVRA/PKM101, Metabolic Activation: RAT, LIVER, S-9, PHENOBARBITAL AND BETA-NAPHTHOFLAVONE inactive; negative | [1] inactive; negative | Test System: E. COLI, Strain/Indicator: WP2UVRA, Metabolic Activation: NONE inactive; negative | Test System: E. COLI, Strain/Indicator: WP2 UVRA, Metabolic Activation: RAT, LIVER, S-9, KC 500 inactive; negative | Test System: E. COLI, Strain/Indicator: WP2UVRA, Metabolic Activation: RAT, LIVER, S-9, PHENOBARBITAL AND BETA-NAPHTHOFLAVONE inactive; negative

CC1(C)CC(N)CC(C)(CN)C1 (stereo unspecified)
inactive: [2] inactive; negative | Test System: AMES SALMONELLA TYPHIMURIUM, Strain/Indicator: TA98, Metabolic Activation: RAT, LIVER, S-9, PCB inactive; negative | [3] inactive; negative | Test System: AMES SALMONELLA TYPHIMURIUM, Strain/Indicator: TA100, Metabolic Activation: RAT, LIVER, S-9, PCB inactive; negative

CCCOC(C(=O)OC1CCN(C)CC1)(c1ccccc1)c1ccccc1
inactive: [2] inactive; negative | Test System: AMES SALMONELLA TYPHIMURIUM, Strain/Indicator: TA98, Metabolic Activation: RAT, LIVER, S-9, PHENOBARBITAL AND 5,6-BENZOFLAVONE inactive; negative | [3] inactive; negative | Test System: AMES SALMONELLA TYPHIMURIUM, Strain/Indicator: TA100, Metabolic Activation: RAT, LIVER, S-9, PHENOBARBITAL AND 5,6-BENZOFLAVONE inactive; negative | Test System: AMES SALMONELLA TYPHIMURIUM, Strain/Indicator: TA1535, Metabolic Activation: NONE inactive; negative | Test System: AMES SALMONELLA TYPHIMURIUM, Strain/Indicator: TA1535, Metabolic Activation: RAT, LIVER, S-9, PHENOBARBITAL AND 5,6-BENZOFLAVONE inactive; negative | Test System: AMES SALMONELLA TYPHIMURIUM, Strain/Indicator: TA1537, Metabolic Activation: NONE inactive; negative | Test System: AMES SALMONELLA TYPHIMURIUM, Strain/Indicator: TA1537, Metabolic Activation: RAT, LIVER, S-9, PHENOBARBITAL AND 5,6-BENZOFLAVONE inactive; negative | [1] inactive; negative | Test System: E. COLI, Strain/Indicator: WP2 UVRA, Metabolic Activation: RAT, LIVER, S-9, PHENOBARBITAL AND 5,6-BENZOFLAVONE inactive; negative
